Measured values taken from publication PMC12138688, “Identification of Orthosteric GABAB Receptor Ligands by Virtual Screening and In Vitro Validation” (ACS Omega, 2025).

tested on: not listed separately; experiment: Solubility of stock in 100% DMSO; assay type: physicochemical; settings: stock reduced to 5 mM
Description: The 34 compounds for in vitro testing were purchased from MolPort (https://www.molport.com/). The test compounds were dissolved in 100% DMSO at a stock concentration of 10 mM and stored at −20 °C. […] Stock compounds were subsequently serially diluted in 100% DMSO and finally in a D-glucose solution (20 mM NaOH, 5 mM D-glucose) to obtain final concentrations for testing.

Row | Compound | solubility of 10 mM stock
1 | CN(Cc1ccc(Cl)c(Cl)c1)Cc1nc2ccsc2c(=O)[nH]1 [Compound 5, CN(Cc1ccc(Cl)c(Cl)c1)Cc1nc2ccsc2c(=O)[nH]1] | solubility problems
2 | CSCCC(NC(=O)N1CC(O)=Nc2ccccc21)C(=O)NCc1ccc(Cl)cc1Cl (stereo not shown) [Compound 25, CSCCC(NC(=O)N1CC(O)=Nc2ccccc12)C(=O)NCc1ccc(Cl)cc1Cl] | solubility problems

tested on: human GABAB-R (ChEMBL ID: CHEMBL2111463); experiment: not given; settings: cited from earlier work

Row | Compound | Activity
3 | CCOC(OCC)P(=O)(O)CCCN [CHEMBL40157, NCCCP(=O)(C(OCC)OCC)O] | Antagonist
4 | NCC(CC(=O)O)c1ccc(Cl)s1 (stereo not shown) [CHEMBL87482, NCC(CC(=O)O)c1ccc(Cl)s1] | Agonist
5 | NCC(C[PH](=O)O)c1ccccc1 (stereo not shown) [CHEMBL109752, NCC(C[PH](=O)O)c1ccccc1] | Agonist
6 | NC(CC[PH](=O)O)c1ccc(Cl)cc1 (stereo not shown) [CHEMBL110306, NC(CC[PH](=O)O)c1ccc(Cl)cc1] | Agonist
7 | NCCC(c1ccccc1)[PH](=O)O (stereo not shown) [CHEMBL111127, NCCC(c1ccccc1)[PH](=O)O] | Agonist
8 | NCC(C[PH](=O)O)c1ccc(F)cc1 (stereo not shown) [CHEMBL111378, NCC(C[PH](=O)O)c1ccc(F)cc1] | Agonist
9 | CP(=O)(O)CC(O)CN (stereo not shown) [CHEMBL113348, CP(=O)(CC(CN)O)O] | Agonist
10 | NCC(O)C[PH](=O)O (stereo not shown) [CHEMBL113453, NCC(O)C[PH](=O)O] | Agonist
11 | NCCC(c1ccc(Cl)cc1)[PH](=O)O (stereo not shown) [CHEMBL114020, NCCC(c1ccc(Cl)cc1)[PH](=O)O] | Agonist
12 | NCC(C[PH](=O)O)c1ccc(Cl)cc1 (stereo not shown) [CHEMBL430501, NCC(C[PH](=O)O)c1ccc(Cl)cc1] | Agonist
13 | CC(NCC(O)CP(=O)(O)Cc1ccccc1)c1ccc(Cl)c(Cl)c1 (stereo not shown) [CHEMBL455185, OC(CP(=O)(Cc1ccccc1)O)CNC(c1ccc(c(c1)Cl)Cl)C] | Antagonist
14 | NCC(O)(CS(=O)(=O)O)c1ccc(Cl)cc1 (stereo not shown) [CHEMBL1256573, NCC(c1ccc(cc1)Cl)(CS(=O)(=O)O)O] | Antagonist
15 | CC(C)(CO)Cc1cc(C(C)(C)C)c(O)c(C(C)(C)C)c1 [CHEMBL1256697, CC(C)(CO)Cc1cc(C(C)(C)C)c(O)c(C(C)(C)C)c1] | PAM

biological target: GABAB-R; experiment: not given; settings: read-out: Ki value; cited from earlier work

Row | Compound | Ki [nM]
16 | CGP54626 | 7.08
